Test results: patent US20140275156A1, “FLAVONOID COMPOUNDS, AND METHODS OF USE THEREOF” (NEUPROTECT PTY LTD, priority 2011, published 2014)

How the values were obtained:
[1] = tested on: primary neonatal rat cardiac myocytes; experiment: Cytoprotection in primary cardiac myocytes; assay type: cell-based
Procedure: (§1) Cardiac myocytes were plated on collagen-coated dishes in serum containing media Dulbecco's modified Eagle's medium/Medium 199 (4:1 v/v) containing 10% (v/v) horse serum, 5% (v/v) fetal calf serum, and penicillin/streptomycin (100 units/ml). Murine skeletal myoblast (C2C12) or rat cardiac myoblasts (H9C2) were maintained in DMEM supplemented with 10% (v/v) fetal calf serum and 100 U/ml penicillin-streptomycin. Cells were incubated overnight at 37° C. in a 5% CO2 incubator prior to the experiment. Cells were pre-treated with flavanols for 30 min prior to stress treatments. Following pre-treatment, cells were stimulated by the addition of H2O2 (1 mM), sorbitol (0.5 M) or arsenite (300 μM). DMSO (0.1% v/v) was used as a vehicle control. Following treatment, cells were assessed for viability or protein lysates prepared for immunoblot analysis.
(§2) To define the protective and kinase modulatory properties of the compounds of the certain embodiments, their effects in greater detail in vitro. The protection of cultured C2C12 murine myoblasts was evaluated against detrimental stress stimuli using an XTT assay of cell viability. In a time-course of oxidative damage, it was observed that 2 h treatment of H2O2 (0.5 or 1.0 mM) reduced myoblast viability to 38.5+2.0% and 31.9+0.8%, respectively, compared with control cells without H2O2 treatment.

[2] = tested on: H9C2 rat myoblasts; experiment: Cytoprotection in H9C2 myoblasts; assay type: cell-based
Procedure: as §1, §2

[3] = in vitro studies (Wang et al., British Journal of Pharmacology (2004) 142, 443-452); cited from earlier work

O=c1c(O)c(-c2ccc(O)c(O)c2)oc2ccccc12 [DiOHF, 3′,4′-dihydroxy flavonol]
protection against stress [1]: similarly protective | protection against stress [2]: similarly protective | infarct and injury associated with myocardial ischaemia and reperfusion [3]: reduce infarct and injury
